Laboratory results as given in the NIST ThermoML archive (doi:10.1016/j.jct.2010.11.017).
Numbers after ± are expanded uncertainties.

Tests used:
[1] = mn = molality of the nth substance listed, in mol/kg; conditions: 101 kPa, Liquid, m2 = 0; for viscosity: Capillary tube (Ostwald / Ubbelohde) method; for speed of sound: Frequency=3 MHz, Linear variable-path acoustic interferometer
[2] = wn = mass fraction of the nth substance listed; conditions: 101 kPa, Liquid, w2 = 0; for viscosity: Capillary tube (Ostwald / Ubbelohde) method; for speed of sound: Frequency=3 MHz, Linear variable-path acoustic interferometer

O [water] + N[C@@H](Cc1c[nH]cn1)C(=O)O
[1]
Conditions | speed of sound [m/s] | viscosity [mPa·s]
293.15 K | 1483.6 ± 10 | 1.002 ± 0.1
298.15 K | – | 0.8903 ± 0.089
303.15 K | 1508.4 ± 10 | 0.7973 ± 0.08
308.15 K | – | 0.719 ± 0.072
313.15 K | 1526.8 ± 10 | 0.6526 ± 0.065
318.15 K | 1533 ± 10 | 0.5972 ± 0.06

Conditions | mass density [kg/m3]
[1], 308.15 K, Pycnometric method | 994.07 ± 6

O [water] + O=C[C@H](O)[C@@H](O)[C@H](O)[C@H](O)CO
[2]
Conditions | speed of sound [m/s] | viscosity [mPa·s]
293.15 K | 1483.6 ± 10 | 1.002 ± 0.1
298.15 K | – | 0.8903 ± 0.089
303.15 K | 1508.4 ± 10 | 0.7973 ± 0.08
308.15 K | – | 0.719 ± 0.072
313.15 K | 1526.8 ± 10 | 0.6526 ± 0.065
318.15 K | 1533 ± 10 | 0.5972 ± 0.06

Conditions | mass density [kg/m3]
[2], 308.15 K, Pycnometric method | 994.07 ± 6
